SMILES strings stand for the structures. Several values for one entry are separate records, joined by “and”; a condition that tells them apart may be missing. Equal entries are not always repeated. Toxic doses and inconclusive results are not listed.

This assay deals with L1210 leukemia ip in BDF1 mice, survival T/C. The experiment in a line: NCI In Vivo Anticancer Drug Screen. Data for tumor model L1210 Leukemia (intraperitoneal) in B6D2F1 (BDF1) mice. The note with it: endpoint: mean survival time, higher = longer survival. The gist of the method:
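Tumor cells were implanted, animals were treated, and survival was followed. The result divides the treated measurement by the vehicle-control measurement.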

Where [1] appears, read: dose: 100.0 mg/kg/injection, schedule: Q01DX009 (ip), vehicle: saline with Tween-80.
Where [2] appears, read: dose: 50.0 mg/kg/injection, schedule: Q01DX001 (ip), vehicle: saline.
Where [3] appears, read: dose: 100.0 mg/kg/injection, schedule: Q01DX001 (ip), vehicle: saline.
[4] abbreviates: dose: 200.0 mg/kg/injection, schedule: Q01DX001 (ip), vehicle: saline.
Setting [5] is: dose: 100.0 mg/kg/injection, schedule: Q04DX003 (ip), vehicle: saline with Tween-80.
Where [6] appears, read: dose: 200.0 mg/kg/injection, schedule: Q04DX003 (ip), vehicle: saline with Tween-80.
[7] abbreviates: dose: 100.0 mg/kg/injection, schedule: Q04DX002 (ip), vehicle: Klucel (hydroxypropylcellulose) (HPC).
Where [8] appears, read: dose: 200.0 mg/kg/injection, schedule: Q04DX002 (ip), vehicle: Klucel (hydroxypropylcellulose) (HPC).
Setting [9] is: dose: 400.0 mg/kg/injection, schedule: Q04DX002 (ip), vehicle: Klucel (hydroxypropylcellulose) (HPC).
Where [10] appears, read: dose: 200.0 mg/kg/injection, schedule: Q01DX009 (ip), vehicle: Klucel (hydroxypropylcellulose) (HPC).
[11] abbreviates: dose: 400.0 mg/kg/injection, schedule: Q01DX001 (ip), vehicle: saline.

With `O=C(OCCOC(=O)c1cccc([N+](=O)[O-])c1)c1cccc([N+](=O)[O-])c1`, the T/C was 95 % of control (dose: 100.0 mg/kg/injection, schedule: Q01DX001 (ip), vehicle: other); 96 % of control (dose: 200.0 mg/kg/injection, schedule: Q01DX001 (ip), vehicle: other); 96 % of control (dose: 400.0 mg/kg/injection, schedule: Q01DX001 (ip), vehicle: other).

With `C1=CCOCOC1`, the T/C reads like this: (dose: 12.5 mg/kg/injection, schedule: Q01DX009 (ip), vehicle: saline with Tween-80) 97 % of control; (dose: 25.0 mg/kg/injection, schedule: Q01DX009 (ip), vehicle: saline with Tween-80) 94 % of control; (dose: 50.0 mg/kg/injection, schedule: Q01DX009 (ip), vehicle: saline with Tween-80) 97 % of control; under setting [1], 113 % of control.

As to `Cc1ccc(S(=O)(=O)OCCN(CCO)c2cn(C(c3ccccc3)(c3ccccc3)c3ccccc3)c(=O)n(C(c3ccccc3)(c3ccccc3)c3ccccc3)c2=O)cc1`, the T/C was 93 % of control under setting [2], 93 % of control under setting [3] and 93 % of control under setting [4].

For the compound `CC(C)/C(=C\c1ccccc1)C(=O)c1ccccc1`, the T/C by setting is: under setting [5], 104 % of control; under setting [6], 110 % of control.

Regarding `Cc1nc(Br)c([N+](=O)[O-])[nH]1`, the T/C (dose: 100.0 mg/kg/injection, schedule: Q01DX001 (ip), vehicle: saline with Tween-80) is 95 % of control; the T/C (dose: 200.0 mg/kg/injection, schedule: Q01DX001 (ip), vehicle: saline with Tween-80) is 114 % of control; the T/C (dose: 400.0 mg/kg/injection, schedule: Q01DX001 (ip), vehicle: saline with Tween-80) is 97 % of control.

Consider `COc1ccc(C(O)c2nnc(C(O)c3ccc(OC)cc3)nn2)cc1` (stereo unspecified), for which the T/C reads like this: under setting [1], 96 % of control; under setting [7], 103 % of control; (dose: 200.0 mg/kg/injection, schedule: Q01DX009 (ip), vehicle: saline with Tween-80) 96 % of control; under setting [8], 90 % of control; (dose: 400.0 mg/kg/injection, schedule: Q01DX009 (ip), vehicle: saline with Tween-80) 86 % of control; under setting [9], 100 % of control.

On to `Cc1ccc(NCC(=O)O)cc1`, for which the T/C is 101 % of control (dose: 100.0 mg/kg/injection, schedule: Q01DX Z (ip), vehicle: methylcellulose (MC)) and 101 % of control (dose: 200.0 mg/kg/injection, schedule: Q01DX Z (ip), vehicle: methylcellulose (MC)).

As for `O=C(NC1CCCCC1)Oc1ccc(-c2ccccc2)cc1Cl`, the T/C was 101 % of control (dose: 100.0 mg/kg/injection, schedule: Q01DX009 (ip), vehicle: Klucel (hydroxypropylcellulose) (HPC)); 111 % of control (dose: 100.0 mg/kg/injection, schedule: Q04DX003 (ip), vehicle: Klucel (hydroxypropylcellulose) (HPC)); 107 % of control under setting [10]; 104 % of control (dose: 200.0 mg/kg/injection, schedule: Q04DX003 (ip), vehicle: Klucel (hydroxypropylcellulose) (HPC)); 98 % of control (dose: 400.0 mg/kg/injection, schedule: Q01DX009 (ip), vehicle: Klucel (hydroxypropylcellulose) (HPC)); 98 % of control (dose: 400.0 mg/kg/injection, schedule: Q04DX003 (ip), vehicle: Klucel (hydroxypropylcellulose) (HPC)).

On to `Nc1ccccc1SC(CC(=O)c1ccccc1)c1cccc([N+](=O)[O-])c1` (stereo unspecified), for which the T/C by setting is: (dose: 100.0 mg/kg/injection, schedule: Q01DX005 (ip), vehicle: Klucel (hydroxypropylcellulose) (HPC)) 112 % of control; under setting [7], 95 % of control; (dose: 200.0 mg/kg/injection, schedule: Q01DX005 (ip), vehicle: Klucel (hydroxypropylcellulose) (HPC)) 105 % of control; under setting [10], 87 % of control; under setting [8], 110 % of control; (dose: 400.0 mg/kg/injection, schedule: Q01DX005 (ip), vehicle: Klucel (hydroxypropylcellulose) (HPC)) 91 % of control. For the same compound, the T/C under setting [9] is 89 % of control.

Consider `CC(=O)OC1CCC(OC(C)=O)C(C#N)(C#N)C1(C#N)C#N` (stereo unspecified), for which the T/C was 104 % of control under setting [5] and 93 % of control under setting [6].

For `O=C1NN=C(c2ccccc2)C1Cc1ccccc1` (stereo unspecified), the T/C under setting [3] was 94 % of control, the T/C under setting [4] was 94 % of control and the T/C under setting [11] is 105 % of control.

Consider `OCC(O)C(O)C(O)C(c1ccc(F)cc1)c1ccc(F)cc1` (stereo unspecified), for which the T/C reads like this: under setting [2], 97 % of control; under setting [3], 100 % of control; under setting [4], 100 % of control; under setting [11], 103 % of control.

`O=C1CN(CCN2CC(=O)NC(=O)C2)CC(=O)N1`: the T/C reads like this: (dose: 6.25 mg/kg/injection, schedule: Q03HX008 (ip), vehicle: steriod suspending solution) 112 % of control; (dose: 10.8 mg/kg/injection, schedule: Q01DX009 (ip), vehicle: steriod suspending solution) 103 % of control; (dose: 12.5 mg/kg/injection, schedule: Q01DX009 (ip), vehicle: steriod suspending solution) 154 % of control; (dose: 12.5 mg/kg/injection, schedule: Q01DX009 (oral), vehicle: steriod suspending solution) 123 % of control; (dose: 12.5 mg/kg/injection, schedule: Q01DX009 (sc), vehicle: steriod suspending solution) 116 % of control; (dose: 12.5 mg/kg/injection, schedule: Q03HX024 (ip), vehicle: steriod suspending solution) 177 % of control. Besides, the T/C (dose: 12.5 mg/kg/injection, schedule: Q03HX032 (ip), vehicle: other) is 156 % of control and 167 % of control; the T/C (dose: 14.0 mg/kg/injection, schedule: Q01DX009 (ip), vehicle: steriod suspending solution) was 108 % of control; the T/C (dose: 18.7 mg/kg/injection, schedule: Q03HX032 (ip), vehicle: other) is 214 % of control and 216 % of control; the T/C (dose: 23.0 mg/kg/injection, schedule: Q01DX009 (ip), vehicle: steriod suspending solution) was 119 % of control; the T/C (dose: 25.0 mg/kg/injection, schedule: Q01DX009 (oral), vehicle: steriod suspending solution) is 116 % of control; the T/C (dose: 25.0 mg/kg/injection, schedule: Q01DX Z (ip), vehicle: steriod suspending solution) was 150 % of control. Moreover, the T/C reads like this: (dose: 25.0 mg/kg/injection, schedule: Q03HX024 (ip), vehicle: steriod suspending solution) 153 % of control; (dose: 39.0 mg/kg/injection, schedule: Q01DX001 (ip), vehicle: steriod suspending solution) 109 % of control; (dose: 39.0 mg/kg/injection, schedule: Q01DX009 (ip), vehicle: steriod suspending solution) 152 % of control; (dose: 50.0 mg/kg/injection, schedule: Q01DX001 (ip), vehicle: steriod suspending solution) 107 % of control; (dose: 50.0 mg/kg/injection, schedule: Q01DX009 (ip), vehicle: steriod suspending solution) 212 % of control; (dose: 50.0 mg/kg/injection, schedule: Q01DX009 (oral), vehicle: steriod suspending solution) 113 % of control. Moreover, the T/C is 154 % of control (dose: 50.0 mg/kg/injection, schedule: Q01DX009 (sc), vehicle: steriod suspending solution); 164 % of control (dose: 50.0 mg/kg/injection, schedule: Q01DX Z (ip), vehicle: steriod suspending solution); 164 % of control (dose: 50.0 mg/kg/injection, schedule: Q03HX008 (ip), vehicle: steriod suspending solution); 165 % of control (dose: 50.0 mg/kg/injection, schedule: Q03HX024 (ip), vehicle: steriod suspending solution); 118 % of control (dose: 65.0 mg/kg/injection, schedule: Q01DX001 (ip), vehicle: steriod suspending solution); 176 % of control (dose: 65.0 mg/kg/injection, schedule: Q01DX009 (ip), vehicle: steriod suspending solution). Also, the T/C reads like this: (dose: 100.0 mg/kg/injection, schedule: Q01DX001 (ip), vehicle: steriod suspending solution) 112 % of control; (dose: 100.0 mg/kg/injection, schedule: Q01DX009 (oral), vehicle: steriod suspending solution) 121 % of control; (dose: 100.0 mg/kg/injection, schedule: Q04DX003 (ip), vehicle: steriod suspending solution) 154 % of control; (dose: 200.0 mg/kg/injection, schedule: Q01DX001 (ip), vehicle: steriod suspending solution) 166 % of control; (dose: 200.0 mg/kg/injection, schedule: Q04DX003 (ip), vehicle: steriod suspending solution) 189 % of control; (dose: 400.0 mg/kg/injection, schedule: Q01DX001 (ip), vehicle: steriod suspending solution) 119 % of control. Besides, the T/C (dose: 400.0 mg/kg/injection, schedule: Q04DX003 (ip), vehicle: steriod suspending solution) was 162 % of control.

(Values after PubChem BioAssay AID248 (DTP/NCI, 2004).)
